In patent US7550469B2, “Heterocyclic amide derivatives and their use as dopamine D3 receptor ligands” (Aventis Pharmaceuticals Inc., priority 2001, dated 2009) one finds Ki data, which are given here for 44 compounds.

Read-outs that look alike come from different tables or passages of the source.

This assay has as its target T1, cloned human dopamine D3 receptors (Homo sapiens, UniProt P35462).
T1 construct: expressed in transfected cells; membrane homogenate
Nature of the assay: [N-Methyl-3H]Spiroperidol binding to cloned human dopamine D3 receptors (Protocol 1). The gist of the method:
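Radioligand displacement with [N-methyl-3H]spiroperidol used a physiological-salt Tris buffer (0.05 M, pH 7.7; NaCl 120 mM, KCl 5 mM, CaCl2 2 mM, MgCl2 1 mM) and membranes of a high-expressing stable CHO clone carrying human D3. Total ligand concentration came from measured added CPM; 0.1% ascorbic acid was optional for oxidizable compounds.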

[1] abbreviates: the 13th table, unit inferred, read-out: D3Ki.
Setting [2] is: the 14th table, read-out: D3 Ki.
The mark [3] stands for this setting: the 23rd table, read-out: D3 Ki.
The mark [4] stands for this setting: the 18th table, read-out: D3 Ki.
Where [5] appears, read: the 21st table, read-out: D3 Ki.
Where [6] appears, read: the 22nd table, read-out: D3 Ki.
Where [7] appears, read: the 19th table, read-out: D3 Ki.

T1 sequence (P35462 whole entry): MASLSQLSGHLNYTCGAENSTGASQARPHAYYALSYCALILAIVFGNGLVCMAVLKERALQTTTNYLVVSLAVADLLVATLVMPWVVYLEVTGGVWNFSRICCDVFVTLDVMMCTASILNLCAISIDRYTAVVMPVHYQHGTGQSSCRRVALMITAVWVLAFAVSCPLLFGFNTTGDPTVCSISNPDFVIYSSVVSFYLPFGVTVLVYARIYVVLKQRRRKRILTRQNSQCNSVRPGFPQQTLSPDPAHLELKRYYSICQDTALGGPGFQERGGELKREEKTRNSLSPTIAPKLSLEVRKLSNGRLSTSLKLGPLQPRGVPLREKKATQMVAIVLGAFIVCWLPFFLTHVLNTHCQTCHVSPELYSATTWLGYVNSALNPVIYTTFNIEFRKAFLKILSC

Consider `Cn1c(C(=O)NCCCCN2CCCN(c3csc4cc(F)ccc34)CC2)cc2ccccc21` [S977821], for which the Ki under setting [1] is 1.65 nM.

Regarding `CSc1ncccc1C(=O)N[C@@H](CO)CCCN1CCN(c2csc3cc(C(F)(F)F)ccc23)CC1` [compound 815681], the Ki (Table 2, read-out: D3K1) was 261 nM; the Ki (read-out: D3K1) was 261 nM; the Ki under setting [2] was 261 nM. For the compound `O=C1NCCN1CCNCC1CC1CN1CCN(c2csc3cc(C(F)(F)F)ccc23)CC1` (racemic) [compound 832609], the Ki under setting [3] is 39.6 nM.

Turning to `O=C(NC(CO)CCCN1CCN(c2csc3cc(C(F)(F)F)ccc23)CC1)c1ccccc1C(F)(F)F` (stereo not shown) [compound 815688], the Ki is, setting by setting: (Table 2, read-out: D3K1) 190 nM; (read-out: D3K1) 190 nM; under setting [2], 190 nM. For the compound `CC(=O)Nc1ccc(C(=O)N[C@H](CO)CCCN2CCN(c3csc4cc(C(F)(F)F)ccc34)CC2)cc1` [compound 815691], the Ki by setting is: (Table 2, read-out: D3K1) 241 nM; (read-out: D3K1) 241 nM; under setting [2], 241 nM. In the case of `CCCCOc1ccc(C(=O)NCCCCN2C3CCC2CC(c2noc4ccccc24)C3)cc1` (stereo not shown) [compound 816529], under “the 15th table, read-out: D3 Ki”, the Ki was 42.5 nM. Regarding `O=C(NCc1sccc1CN1CCN(c2csc3cc(F)ccc23)CC1)c1ccc(C(F)(F)F)cc1` [compound 826311], the Ki under setting [4] amounted to 74 nM. Take `COc1cc(OC)cc(C(=O)NCCCCN2[C@H](C)CN(c3csc4cc(F)ccc34)C[C@@H]2C)c1` [compound 827048]: under setting [5], the Ki turned out to be 317 nM. Take `O=C(N[C@@H](CO)CCCN1CCN(c2csc3cc(C(F)(F)F)ccc23)CC1)c1ccc(Br)cc1` [compound 815679]: the Ki (Table 2, read-out: D3K1) was 129 nM; the Ki (read-out: D3K1) came out at 129 nM; the Ki under setting [2] worked out at 129 nM. Take `C=CCCCCCCC(=O)NCCCCCN1CCC(c2noc3ccsc23)CC1` [compound 816203]: the Ki under setting [1] worked out at 94.1 nM.

For `O=C(NCCCCN1CCCN(c2csc3cc(F)ccc23)CC1)c1cc(F)cc(F)c1` [S981849], the Ki under setting [1] was determined as 5.03 nM.

Turning to `O=C(N[C@H](CO)CCCN1CCN(c2csc3cc(C(F)(F)F)ccc23)CC1)c1cnccn1` [compound 815702], the Ki (Table 2, read-out: D3K1) was determined as 439 nM; the Ki (read-out: D3K1) stood at 439 nM; the Ki under setting [2] came to 439 nM. In the case of `COc1ccc2[nH]c(C(=O)NCCCCCCN3CCN(c4csc5cc(C(F)(F)F)ccc45)CC3)cc2c1` [compound 826738], the Ki (read-out: D3K1) came to 6.1 nM and the Ki under setting [2] is 6.1 nM. `O=C(NCCCCN1CCN(c2n[nH]c3ccsc23)CC1)c1ccc(-c2ccccc2)cc1` [compound 825153]: under setting [6], the Ki was 8.57 nM.

In the case of `O=C(NCCCCN1CCN(c2nn(C(=O)c3ccc(F)cc3)c3ccsc23)CC1)c1ccc(F)cc1` [compound 825148], the Ki under setting [6] came out at 36.4 nM. As for `O=C(NCc1sccc1CN1CCN(c2csc3cc(F)ccc23)CC1)c1cccnc1Cl` [compound 826313], the Ki under setting [4] is 134 nM.

In the case of `O=C(NCC(CO)CCN1CCN(c2csc3cc(C(F)(F)F)ccc23)CC1)c1n[nH]c2ccccc12` (stereo not shown) [818935ES], the Ki (Table 2, read-out: D3K1) worked out at 244 nM. As for `O=C(N[C@H](CO)CCCN1CCN(c2csc3cc(C(F)(F)F)ccc23)CC1)c1ccco1` [compound 815696], the Ki (Table 2, read-out: D3K1) amounted to 871 nM; the Ki (read-out: D3K1) turned out to be 871 nM; the Ki under setting [2] was found to be 871 nM.

For `O=C(NCCCCN1CCN(c2n[nH]c3ccsc23)CC1)c1ccc(F)cc1` [compound 825162], under setting [6], the Ki was 114 nM. In the case of `O=C(Nc1ccc(CN2CCN(c3csc4cc(F)ccc34)CC2)cc1)c1ccc(-c2ccccc2)cc1` [compound 822210], the Ki under setting [7] amounted to 39.5 nM. Regarding `O=C(NC/C=C/CN1CCN(c2csc3cc(C(F)(F)F)ccc23)CC1)C1CCCC1` [compound 827712], the Ki (read-out: D3K1) turned out to be 66 nM. On to `CC(C)(C)c1ccc(C(=O)NCCCCN2CCCN(c3csc4cc(C(F)(F)F)ccc34)CC2)cc1` [S980642], for which the Ki under setting [1] turned out to be 69 nM. On the same count and under the same terms, in the case of `Cc1nn(C)c2sc(C(=O)NCCCCCN3CCCN(c4csc5cc(F)ccc45)CC3)cc12` [S984503] it was 10.2 nM.

As to `O=C(NCCCCN1CCN(c2c(-c3ccccc3)sc3cc(F)ccc23)CC1)c1ccc(C(F)(F)F)cc1` [compound 815871], the Ki by setting is: (Table 2, read-out: D3K1) 796 nM; under setting [2], 796 nM.

For the compound `COc1ccc(C(=O)NCCCCN2[C@H](C)CN(c3csc4cc(C(F)(F)F)ccc34)C[C@@H]2C)cc1OC` [compound 826930], under setting [5], the Ki stood at 74.7 nM. Take `O=C(Nc1cccc(CN2CCN(c3csc4cc(F)ccc34)CC2)c1)c1ccc(OC(F)(F)F)cc1` [compound 822162]: the Ki under setting [7] amounted to 380 nM. On to `C[C@H]1CC[C@H](NC[C@@H]2C[C@H]2CN2CCN(c3csc4cc(C(F)(F)F)ccc34)CC2)CC1` [compound 832209], for which the Ki under setting [3] was 13.5 nM.

Take `COc1ccc2[nH]c(C(=O)NCC3CCC3CN3CCN(c4csc5cc(C(F)(F)F)ccc45)CC3)cc2c1` (stereo not shown) [compound 826291]: the Ki (read-out: D3K1) came to 37 nM. Turning to `C[C@@H]1CN(c2csc3cc(F)ccc23)C[C@H](C)N1CCCCNC(=O)c1cc2ccccc2n1C` [compound 826961], under setting [5], the Ki amounted to 51.2 nM. Take `O=C(NCCCCN1CCN(c2csc3cc(C(F)(F)F)ccc23)CC1)c1ccccc1Br` [compound 815558]: the Ki (read-out: D3K1) was 23 nM. For the compound `CCCCOC(=O)NCC1CC1CN1CCC(c2noc3ccsc23)CC1` (stereo not shown) [compound 831696], for the setting “the 25th table, read-out: D3 Ki”, the Ki was found to be 29.3 nM. As for `O=C(NCCCCN1CCCN(c2csc3cc(C(F)(F)F)ccc23)CC1)c1ccc2ccccc2c1` [S980632], the Ki under setting [1] stood at 23 nM. As to `O=C(NCCCCCN1CCCN(c2csc3cc(F)ccc23)CC1)c1cc2ccccc2s1` [S984494], under setting [1], the Ki is 11.6 nM. For `CCn1cc(C(=O)N[C@@H](CO)CCCN2CCN(c3csc4cc(C(F)(F)F)ccc34)CC2)c(=O)c2ccc(C)nc21` [compound 815680], the Ki (Table 2, read-out: D3K1) came out at 197 nM; the Ki (read-out: D3K1) turned out to be 197 nM; the Ki under setting [2] was 197 nM. For `COc1ccccc1C(=O)NCCCCCN1CCCN(c2csc3cc(F)ccc23)CC1` [S984492], the Ki under setting [1] was 34.7 nM. Consider `OC(CCN1CCC(c2noc3ccsc23)CC1)CN1CCC(Cc2ccccc2)CC1` (stereo not shown) [compound 831944], for which the Ki (the 26th table, read-out: D3 Ki) turned out to be 38.5 nM.

In the case of `CC(C)(C)OC(=O)Cn1c(C(=O)NCCCCN2CCCN(c3csc4cc(F)ccc34)CC2)cc2ccccc21` [compound 817271], the Ki runs as follows: (Table 2, read-out: D3K1) 326 nM; (the 16th table, read-out: D3 Ki) 326 nM. For `COc1ccc(C(=O)N(Cc2ccccc2)CC2CC2CN2CCCN(c3csc4cc(F)ccc34)CC2)cc1` (racemic) [compound 830394], the Ki (the 17th table, read-out: D3 Ki) turned out to be 10.7 nM. For `O=C(NCCCCCN1CCN(c2csc3cc(C(F)(F)F)ccc23)CC1)c1n[nH]c2ccccc12` [compound 826801], the Ki reads like this: (read-out: D3K1) 49.8 nM; under setting [2], 49.8 nM.

As for `CC1=C(C(=O)NCCCCCN2CCN(c3csc4cc(C(F)(F)F)ccc34)CC2)Cc2ccccc21` [compound 826802], the Ki runs as follows: (Table 2, read-out: D3K1) 16.9 nM; under setting [2], 16.9 nM. With `COc1ccc(C(=O)NC/C=C/CN2CCN(c3csc4cc(C(F)(F)F)ccc34)CC2)cc1` [compound 827738], the Ki (Table 2, read-out: D3K1) was 22.6 nM. As for `Cn1c(C(=O)NCCCCCN2CCN(c3csc4cc(C(F)(F)F)ccc34)CC2)cc2ccccc21` [compound 826796], the Ki came to 14.9 nM (read-out: D3K1) and 14.9 nM under setting [2].

Consider `O=C(NCCCCN1CCCN(c2csc3cc(F)ccc23)CC1)c1cc(Cl)ccc1[N+](=O)[O-]` [S982540], for which the Ki under setting [1] came to 1.2 nM.

With `COc1ccc(C(=O)NCCCCN2CCCN(c3csc4cc(F)ccc34)CC2)cc1OC` [compound 822196], the Ki under setting [1] came to 5 nM.
